Results as given in article PMC6026185 (Scientific Reports, 2018).
Entries after “also recorded” stand apart in the source; their conditions may differ. Where two headings read alike, the source gives them in different places.

Tests used:
[1] = set-up: method as in ref [30] = [30]; 30. Reilly, R. F. & Jackson, E. K. Goodman & Gilman’s. The Pharmacological Basis of Therapeutics . 12th ed. Brunton, L. L., Chabner, B. A. & Knollmann, B. C. (eds), pp. 671–719 (McGraw-Hill, New York); details: ref [30]; cited from earlier work
[2] = in words, cited from earlier work
hNKCC1B = biological target: T1, hNKCC1B (Homo sapiens, UniProt P55011); test: 86Rb+ uptake in hNKCC1B-expressing Xenopus laevis oocytes; assay type: cell-based; details: 5 min, corrected for uninjected oocytes, median and range of 3–7 experiments
T1 construct: expressed in transfected cells; host or cells: Xenopus laevis oocytes injected with cRNA (pXOOM vector)
T1 sequence (P55011 1-1196 isoform P55011-3): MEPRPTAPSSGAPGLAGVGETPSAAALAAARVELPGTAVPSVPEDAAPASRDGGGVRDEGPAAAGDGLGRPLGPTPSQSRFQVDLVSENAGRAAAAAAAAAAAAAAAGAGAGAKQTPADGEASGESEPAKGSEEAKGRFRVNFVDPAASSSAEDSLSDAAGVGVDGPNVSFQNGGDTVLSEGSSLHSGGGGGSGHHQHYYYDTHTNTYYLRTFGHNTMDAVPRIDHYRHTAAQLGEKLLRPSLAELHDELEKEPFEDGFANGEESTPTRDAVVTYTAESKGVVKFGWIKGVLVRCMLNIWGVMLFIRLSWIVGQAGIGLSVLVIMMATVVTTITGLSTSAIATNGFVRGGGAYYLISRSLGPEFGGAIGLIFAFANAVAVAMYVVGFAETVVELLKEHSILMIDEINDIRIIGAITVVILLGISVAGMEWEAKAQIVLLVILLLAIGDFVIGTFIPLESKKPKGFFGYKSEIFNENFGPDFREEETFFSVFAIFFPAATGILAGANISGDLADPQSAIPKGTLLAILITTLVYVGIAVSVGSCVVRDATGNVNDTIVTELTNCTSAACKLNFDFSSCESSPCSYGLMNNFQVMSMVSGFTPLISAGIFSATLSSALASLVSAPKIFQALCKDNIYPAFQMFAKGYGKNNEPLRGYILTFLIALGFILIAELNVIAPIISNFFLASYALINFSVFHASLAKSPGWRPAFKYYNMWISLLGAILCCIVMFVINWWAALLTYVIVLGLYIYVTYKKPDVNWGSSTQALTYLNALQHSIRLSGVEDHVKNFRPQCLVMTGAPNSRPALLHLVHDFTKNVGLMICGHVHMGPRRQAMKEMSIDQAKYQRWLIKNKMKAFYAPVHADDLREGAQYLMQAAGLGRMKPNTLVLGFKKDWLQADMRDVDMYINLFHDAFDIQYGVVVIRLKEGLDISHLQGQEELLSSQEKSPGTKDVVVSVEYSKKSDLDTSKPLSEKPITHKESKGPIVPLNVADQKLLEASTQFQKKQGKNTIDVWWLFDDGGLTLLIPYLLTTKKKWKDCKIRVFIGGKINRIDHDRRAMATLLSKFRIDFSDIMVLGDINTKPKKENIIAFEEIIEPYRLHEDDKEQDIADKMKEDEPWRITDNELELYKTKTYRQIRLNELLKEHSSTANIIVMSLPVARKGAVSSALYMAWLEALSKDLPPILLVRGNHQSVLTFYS

[3] = rats, cited from earlier work
NKCC2 [4] = system: NKCC2; set-up: method as in Greven[53]; details: Rat kidney TAL; ref Greven[53]; cited from earlier work
[5] = set-up: method as in DrugBank database; details: ref DrugBank database; cited from earlier work
[6] = set-up: method as in DrugBank database; details: ref DrugBank database; cited from earlier work; remark: listed apart in the source
hNKCC1A = biological target: T2, hNKCC1A (Homo sapiens, UniProt P55011); test: 86Rb+ uptake in hNKCC1A-expressing Xenopus laevis oocytes; assay type: cell-based; details: for IC50 / IC50 for hNKCC1A, IC50 (µM) (range): 86Rb+ uptake, Xenopus oocytes, 5 min, corrected for uninjected oocytes, median and range of 3–7 experiments; for Ratio hNKCC1A/ hNKCC1B: ratio of IC50s
T2 construct: Full-length NKCC1 (NKCC1A) comprises ~1200 amino acids; expressed in transfected cells; host or cells: Xenopus laevis oocytes injected with cRNA (pXOOM vector)
T2 sequence (P55011 1-1212): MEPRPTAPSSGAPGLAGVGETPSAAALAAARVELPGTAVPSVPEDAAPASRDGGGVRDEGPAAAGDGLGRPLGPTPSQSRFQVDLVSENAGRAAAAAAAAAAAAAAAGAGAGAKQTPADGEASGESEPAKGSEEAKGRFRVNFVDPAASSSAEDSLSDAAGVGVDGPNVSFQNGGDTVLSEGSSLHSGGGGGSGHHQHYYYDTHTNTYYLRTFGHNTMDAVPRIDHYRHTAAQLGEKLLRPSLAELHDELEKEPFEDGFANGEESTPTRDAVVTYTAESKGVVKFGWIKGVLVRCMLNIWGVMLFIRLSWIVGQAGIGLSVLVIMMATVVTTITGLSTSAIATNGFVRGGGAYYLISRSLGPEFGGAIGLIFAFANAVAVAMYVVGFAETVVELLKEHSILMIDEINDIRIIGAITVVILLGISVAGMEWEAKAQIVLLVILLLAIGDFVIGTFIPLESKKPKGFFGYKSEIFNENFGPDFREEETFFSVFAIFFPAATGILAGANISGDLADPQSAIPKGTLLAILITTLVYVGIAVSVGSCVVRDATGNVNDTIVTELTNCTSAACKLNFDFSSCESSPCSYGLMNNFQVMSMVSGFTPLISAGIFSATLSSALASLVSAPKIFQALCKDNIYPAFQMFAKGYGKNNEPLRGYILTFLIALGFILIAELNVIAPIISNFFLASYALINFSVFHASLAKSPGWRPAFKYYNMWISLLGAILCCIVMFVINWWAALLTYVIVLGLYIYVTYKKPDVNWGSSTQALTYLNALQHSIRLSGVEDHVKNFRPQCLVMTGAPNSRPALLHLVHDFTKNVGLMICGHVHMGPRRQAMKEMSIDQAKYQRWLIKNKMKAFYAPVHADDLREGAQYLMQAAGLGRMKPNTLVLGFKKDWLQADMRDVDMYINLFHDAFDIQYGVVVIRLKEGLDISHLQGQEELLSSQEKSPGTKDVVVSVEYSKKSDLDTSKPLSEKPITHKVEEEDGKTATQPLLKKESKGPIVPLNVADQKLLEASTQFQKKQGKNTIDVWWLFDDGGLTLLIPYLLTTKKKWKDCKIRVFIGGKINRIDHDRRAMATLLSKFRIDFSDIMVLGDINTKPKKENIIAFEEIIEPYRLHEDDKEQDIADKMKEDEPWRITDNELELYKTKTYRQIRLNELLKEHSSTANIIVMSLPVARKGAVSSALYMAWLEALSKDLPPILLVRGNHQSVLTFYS

NKCC1 = details: Activated state, isoforms not differentiated, turkey erythrocytes, chick cardiac cells, winter flounder intestine, ref Palfrey et al.[48], Frelin et al.[49], O’Grady et al.[50], cited from earlier work
NKCC2 [7] = system: NKCC2; set-up: method as in Schlatter et al.[23]; details: Rabbit kidney TAL; ref Schlatter et al.[23]; cited from earlier work
NKCC2 [8] = system: NKCC2; set-up: method as in ref Palfrey et al.[48]; Schlatter et al.[23]; Frelin et al.[49]; O’Grady et al.[50]; Glanville et al.[51]; Hannaert et al.[52]; details: Rabbit kidney TAL; rat kidney TAL; NKCC2 isoforms not differentiated; ref Palfrey et al.[48]; Schlatter et al.[23]; Frelin et al.[49]; O’Grady et al.[50]; Glanville et al.[51]; Hannaert et al.[52]; cited from earlier work
hNKCC2 isoform A = details: Xenopus oocytes; ref Gillen et al.[55]; Carota et al.[56]; read-out: IC50 (µM) NKCC2 (hA); cited from earlier work
hNKCC2 isoform B = details: Xenopus oocytes; ref Gillen et al.[55]; Carota et al.[56]; read-out: IC50 (µM) NKCC2 (hB); cited from earlier work
NKCC2 [9] = system: NKCC2; set-up: method as in Wittner et al.[54]; details: Mouse and rabbit kidney TAL; ref Wittner et al.[54]; cited from earlier work
[10] = mIMCD-K2 cells, rat erythrocytes and thymocytes, Schlatter et al.[23], Glanville et al.[51], Hannaert et al.[52]

NS(=O)(=O)c1cc(-c2nnn[nH]2)c(NCc2cccs2)cc1Cl [Azosemide]
clinical diuretic potency relative to furosemide [1]: about the same diuretic potency as furosemide | plasma protein binding ([2]; ref [31]): highly bound to plasma proteins | IC50 (hNKCC1B): 0.197 µM | brain levels ([3]; 30 min following i.v. 20 mg/kg, below detection limit, ref [32]): < 0.05 µg/g | IC50 (NKCC2 [4]): 3 µM | Lipophilicity (logP) [5]: 2.38 | pKa [6]: 7.38 | IC50 (hNKCC1A): 0.246 µM | Ratio hNKCC1A/ hNKCC1B (hNKCC1A): 1.25

NS(=O)(=O)c1cc(C(=O)O)cc(NCc2ccccc2)c1Oc1ccccc1 [Benzmetanide]
IC50 (NKCC1): 0.05 to 0.3 µM

C=C(CC)C(=O)c1ccc(OCC(=O)O)c(Cl)c1Cl [Ethacrynic acid]
IC50 (hNKCC1B): 3070 µM | IC50 (NKCC2 [7]): 5.1 µM | IC50 (hNKCC1A): 1680 µM

CCOC(=O)/C=C1\SC(N2CCCCC2)C(=O)N1C (stereo not drawn) [Etozolin]
IC50 (NKCC2 [7]): > 100 µM

NS(=O)(=O)c1cc(C(=O)O)c(NCc2ccco2)cc1Cl [Furosemide]
IC50 (NKCC2 [8]): 3 to 7.1 µM | IC50 (NKCC1; [10]): 7 to 23 µM | IC50 (hNKCC2 isoform A): 15.1 µM | IC50 (hNKCC2 isoform B): 7.2 µM

COc1ccc(Cl)cc1C(=O)NCCc1ccc(S(=O)(=O)NC(=O)NC2CCCCC2)cc1 [Glybenclamide, 5-chloro-N-(2-{4-[(cyclohexylcarbamoyl)sulfamoyl]phenyl}ethyl)-2-methoxybenzamide]
IC50 (hNKCC1B): > 100 µM | IC50 for hNKCC1B, IC50 (µM) (range) (hNKCC1B; listed as glibenclamide): did not inhibit; also recorded: inactive | IC50 (hNKCC1A): > 100 µM | IC50 for hNKCC1A, IC50 (µM) (range) (hNKCC1A; listed as glibenclamide): did not inhibit; also recorded: inactive

CC1(c2ccccc2)Cc2cc(OCC(=O)O)c(Cl)c(Cl)c2C1=O (stereo not drawn) [Indacrinone]
IC50 (NKCC2 [7]): 12 µM

CC(c1ccc(Cl)c(Cl)c1)N1N=C(N)CC1=O (stereo not drawn) [Muzolimine]
IC50 (NKCC2 [7]): > 100 µM

CN1C(=O)C(N2CCCCC2)S/C1=C/C(=O)O (stereo not drawn) [Ozolinon]
IC50 (NKCC2 [7]): 11 µM

NS(=O)(=O)c1cc(C(=O)O)cc(N2CCCC2)c1Oc1ccccc1 [Piretanide]
IC50 (hNKCC1B): 1.66 µM | IC50 (NKCC2 [8]): 1 to 1.1 µM | IC50 (NKCC1; [10]): 0.5 to 3 µM | IC50 (hNKCC1A): 3.35 µM | Ratio hNKCC1A/ hNKCC1B (hNKCC1A): 2.02

O=C(O)COc1ccc(C(=O)c2cccs2)c(Cl)c1Cl [Ticrynafen]
IC50 (hNKCC1B): 1780 µM | IC50 (NKCC2 [7]): 410 µM | IC50 (hNKCC1A): 489 µM | Ratio hNKCC1A/ hNKCC1B (hNKCC1A): 0.275

CN=C1SCC(O)(c2ccc(Cl)c(S(N)(=O)=O)c2)N1C (stereo not drawn) [Tizolemide]
IC50 (NKCC2 [7]): > 100 µM

Cc1cccc(Nc2ccncc2S(=O)(=O)NC(=O)NC(C)C)c1 [Torasemide]
clinical diuretic potency relative to furosemide [1]: about 3 times | plasma protein binding ([2]; ref [33]): highly bound to plasma proteins | IC50 (hNKCC1B): 8.19 µM | brain:plasma concentration ratio ([3]; 30 min after i.v. 10 mg/kg, ref [34]): 0.00024 | IC50 (NKCC2 [9]): 0.3 µM | IC50 (hNKCC1A): 6.18 µM | Ratio hNKCC1A/ hNKCC1B (hNKCC1A): 0.755

NS(=O)(=O)c1cc(C(=O)NN2CC3C4CCC(C4)C3C2)ccc1Cl (stereo not drawn) [Tripamide]
IC50 (hNKCC1B): > 1000 µM | IC50 (hNKCC1A): > 1000 µM

Cc1cccc(C)c1NC(=O)c1cc(S(N)(=O)=O)c(Cl)cc1O [Xipamide, 4-chloro-5-sulfamoyl-2′,6′-salicyloxylidide]
IC50 (hNKCC1B): > 1750 µM | IC50 for hNKCC1B, IC50 (µM) (range) (hNKCC1B): did not inhibit; also recorded: inactive | IC50 (hNKCC1A): > 1750 µM | IC50 for hNKCC1A, IC50 (µM) (range) (hNKCC1A): did not inhibit; also recorded: inactive
